Results from publication PMC4912613, “A broad analysis of resistance development in the malaria parasite” (Nature Communications, 2016).
Marks after values point to notes of the source that are not given here.

How the values were obtained:
Assay type in all cases: cell-based, Plasmodium falciparum
[1] = system: CYTb-G131S (cytb G131S, parent Dd2); test: Cross-resistance EC50 assay, CYTb-G131S; settings: for EC50: Plasmodium falciparum, SYBR green 72 hour assay, synchronized parasites, 384-well format
Description: (§1) To evaluate potential overlapping activity against known antimalarial drug targets, we performed dose-response studies with each compound against our assembled set of drug-resistant lines and their corresponding parents, in an asexual blood stage proliferation assay (Table 1). Comparisons were made to the drug-sensitive strain 3D7 when a parent was unavailable (TM90C2A, W2 and Dd2). As laboratories conducted EC50 assays with different strains and protocols, all comparisons were made between assays from the same laboratory and under the same assay conditions. Compounds displaying >5-fold EC50 shifts relative to the parent or sensitive strain were flagged as having potentially non-novel targets. Average fold shifts per strain ranged from 0.82 to 2.34, with a median of 1.23 indicating there was not common resistance to any one resistant clone. No resistance patterns were observed when classifying the compounds based on chemical structure, but this was not surprising given the diversity of compounds chosen. On the other hand, given that these confirmed compounds were derived from larger unconfirmed hit lists to which some filtration criteria may have been applied (for example, elimination of obvious dihydrofolate reductase inhibitors[32]), some[10][11][12][13] pre-existing bias may exist in the set. […]
(§2) Alternatively, a SYBR Green-based proliferation approach was used for the 72-h assay, as previously described. Briefly, a culture of either synchronized or asynchronous parasitized RBCs (0.3% parasitemia and 4% haematocrit) in screening medium (identical to supplemented medium above except no serum was added) was exposed to serial drug dilutions. Plates were incubated at 37 °C and gassed with 93% N2, 4% CO2 and 3% O2 for 72 h. Following incubation, 10 × SYBR Green I (Invitrogen; supplied in 10,000 × concentration) in lysis buffer ([…], 5 mM EDTA, 0.16% Saponin wt per vol and 1.6% Triton X vol per vol) was added to the wells and the plates were incubated overnight at room temperature before plate reading. EC50 assays were repeated three times, taking the average EC50 value from each assay set, and removing any outliers using a single iteration of Grubbs' test, eliminating values with z-scores above the critical z-value (α=0.05). The raw EC50 values for synchronized parasites assayed in a 384-well format are listed in Supplementary Data 4. The raw EC50 values for asynchronous parasites assayed in a 96 or 1536-well format are listed in Supplementary Data 5.
(§3) EC50 values for each strain were compared with those of the corresponding parent strain to determine fold-shift changes and identify resistance. To minimize the cause variance between assays, all comparisons were conducted between strains assayed under identical conditions. A one-way ANOVA followed by a Dunnet's post-test was conducted in GraphPad Prism to identify significant changes between the parent and resistant strain.

[2] = system: Stage 5 gametocytes from P. falciparum NF54; test: Late-stage (stage V) gametocyte survival assay, MitoTracker; settings: for EC50: Plasmodium falciparum, P. falciparum NF54, 72 h, read-out: Stage 5 Gametocyte EC50; for EC50 fold shift compared to asexual stage: Stage 5 Gametocyte EC50: gametocyte EC50 / 3D7 EC50
Protocol: The second assay was a late-stage (stage V) gametocyte survival assay, which predicts transmission-blocking activity. […] Positive and negative control compounds included puromycin (0.61±0.11 μM) and atovaquone (> 12.50 μM), respectively.
To test sexual-stage activity, compounds were tested against late-stage gametocytes using a MitoTracker fluorescent-based assay. Specifically, synchronized stage V gametocytes were incubated with compound for 72 h. MitoTracker Red CMXRos (Life Technologies) was added to each well (final concentration: 500 nM) together with saponin to lyse the RBCs. Each plate was then imaged with an Operetta High Content Imaging System (Perkin Elmer) for fluorescence (590–640 nm). Varying levels of compound concentration were used (1.25 μM or 12.5 μM) due to the stock concentration supplied.
The gametocytocidal activity was measured using high-content image analysis software (Harmony, Perkin Elmer). The readout was based on number of metabolically active gametocytes per well.

[3] = system: ATQ-R4 (cytb M133I and L144S, parent 3D7); test: Cross-resistance EC50 assay, ATQ-R4; settings: for EC50: Plasmodium falciparum, 3D7, SYBR green 72 hour assay, asynchronized parasites, 96-well or 1536-well format, ATQ-R4
Description: as §1, §2, §3

[4] = system: P. falciparum 3D7, Dd2, Dd2Δexo; test: In vitro evolution of compound-resistant lines (selection); settings: for Time Length to Obtain Mutants: in vitro selection; for # of Resistant Strains Generated: resistant cultures out of three independent cultures; for EC50 fold shifts observed: selected parasites vs selection parent
Description: While we found an overall lack of pre-existing resistance, analysing the onset of resistance was critical, as compounds resulting in rapid resistance are not ideal for clinical development. We therefore sought to create drug-resistant parasites using a variety of different selection methods. We implemented either a high-dose method or a ramp-up/pulse method for our in vitro selections. Two of the 50 compounds—MMV028895 and MMV665824—were removed from the selection study during experimentation. […] Out of the remaining 48 compounds, resistant parasites were obtained for 23 (Supplementary Data 1). As each selection was performed in triplicate with three independent cultures, we succeeded in generating a total of 66 resistant cultures. Parasites resistant to MMV026596 were not obtained despite 100 days of selection, but the cultures acquired hypersensitivity to mefloquine with a 10-fold reduction in EC50 compared with its parental line, 3D7. For the remaining 24 compounds, acquisition of resistant parasites was unsuccessful despite numerous attempts over an extensive period of time.
Based on the compound speed of action and lab specialty, selections were conducted using a high-pressure intermittent selection method, a step-wise selection method, or a constant selection method. For high-pressure selections, ∼1–2 × 10^9 parasites were treated at a concentration of 3–10 × EC50 until parasites could not be seen by microscopy (4–10 days). Following treatment, compound pressure was removed and cultures were allowed to recover. Once healthy parasites were seen and parasitemia reached ∼2%, compound pressure was reinstated. For step-wise selections, ∼1 × 10^8 parasites were treated at a starting concentration resulting in a reduced growth rate of 50%. Cultures were examined daily by microscopy, increasing compound concentration in increments of 5–10% as needed to maintain a 50% reduced growth rate. Selections were carried out until cultures achieved a reproducible EC50 fold shift of >3 × . Finally, constant selections were conducted in a similar manner to the high-pressure intermittent method with the exception that compound pressure was never removed. Following successful selection, cultures were cloned out using a limiting dilution method as previously described. Selections were terminated after 200 days if resistance could not be obtained.

Row | SMILES | EC50 ([1]; DD2, CYTb:G131S strain) [nM] | EC50 [2] [nM] | EC50 fold shift compared to asexual stage: Stage 5 Gametocyte EC50 [2] | EC50 [3] [µM] | Time Length to Obtain Mutants [4] | # of Resistant Strains Generated [4] | EC50 fold shifts observed [4] | EC50 ([1]; strain CYTb:G131S (Dd2 parent)) [nM] | fold change in EC50, CYTb-G131S vs parent ([1]; resistance, parent Dd2) [fold] | EC50 fold-shift, ATQ-R4 vs parent ([3]; resistance, parent 3D7)
1 | COc1ccc(NC(=O)N2CCCCN3[C@H](CN)[C@H](c4ccc(C#Cc5ccccc5)cc4)[C@@H]3C2)cc1 [BRD1095] | 24 | 259 | 6.48 | 0.003 | SHORT (0-50 days) | 3/3 | 4-100x | – | – | –
2 | CCN(CC)CCn1c(=N)n(CC(O)c2ccc(Cl)c(Cl)c2)c2ccccc21.Cl (stereo not drawn) [MMV000248] | – | 1600 | 5.23 | 0.177 | LONG (> 125 days) | 0/3 | no shift | 367 | – | –
3 | CCOc1cc2c(cc1OCC)C(c1cc(Cl)ccc1O)NCC2 (stereo not drawn) [MMV000478] | – | > 1250 | > 1.25 | 0.833 | LONG (> 125 days) | 0/3 | no shift | 1370 | – | –
4 | CCCOCc1cc(CN2CCN(c3cccc(Cl)c3)CC2)c(O)c2ncccc12 [MMV000787] | – | 5670 | – | 1.44 | LONG (> 125 days) | 0/3 | no shift | 632 | – | –
5 | CN1CCN(c2ccc(Nc3c4ccccc4nc4ccccc34)cc2)CC1 [MMV006172] | – | 919 | – | 0.217 | LONG (> 125 days) | 0/3 | no shift | 171 | – | –
6 | CCCN(CCC)CC(O)COc1ccccc1C(=O)Nc1ccccc1 (stereo not drawn) [MMV006455] | – | > 1250 | > 2.3 | 0.674 | LONG (> 125 days) | 0/3 | no shift | 319 | – | –
7 | COc1cc2cc(C(=O)Nc3ccccc3)c(N)nc2cc1OC [MMV006767] | – | > 12500 | – | 2.73 | MODERATE (50-125 days) | 2/3* | 2-4x | 1800 | – | –
8 | Cc1cc(Nc2ccc(OCc3ccccc3)cc2)nc2cc(O)ccc12 [MMV007181] | – | 805 | 2.33 | 0.109 | LONG (> 125 days) | 0/3 | no shift | 245 | – | –
9 | Brc1ccc(Nc2nc3ccccc3nc2Nc2ccc(Br)cc2)cc1 [MMV007224] | – | 2520 | 11.35 | 0.766 | LONG (> 125 days) | 3/3 | 1.7x | 285 | – | –
10 | Cc1ccc(Cn2c(N3CCC(C(=O)NCc4cccs4)CC3)nc3ccccc32)cc1 [MMV007564] | – | 2210 | 3.81 | 1.05 | SHORT (0-50 days) | 3/3 | 7-12x | 1300 | – | –
11 | Cc1c(C)n(Cc2ccc(F)cc2)c2ccc(C(=O)NCc3ccco3)cc12 [MMV008149] | – | > 1250 | 1.62 | 3.88 | SHORT (0-50 days) | 3/3 | – | > 5000 | > 38 | Statistically significant resistance
12 | OC(CNC1CCCCC1)Cn1c2ccccc2c2ccccc21 (stereo not drawn) [MMV009063] | – | > 1250 | > 1.5 | 0.668 | LONG (> 125 days) | 3/3 | 1.9-3.4x | 412 | – | –
13 | CCN(CC)S(=O)(=O)c1ccc(-c2csc(Nc3ccc(C)c(C)c3)n2)cc1 [MMV009108] | – | 921 | 0.99 | 2.44 | SHORT (0-50 days) | 3/3 | 9x | 494 | – | –
14 | COC(=O)c1ccc(C2C3=C(O)CC(c4ccc(F)cc4)CC3=Nc3ccccc3N2C(=O)c2ccccc2)cc1 (stereo not drawn) [MMV011438] | – | 971 | 2.25 | 0.379 | LONG (> 125 days) | 0/3 | no shift | 336 | – | –
15 | Nc1ccc(-c2nc3cc(Oc4ccc(Oc5ccc6[nH]c(-c7ccc(N)cc7)nc6c5)cc4)ccc3[nH]2)cc1 [MMV011895] | – | > 12500 | > 78 | 0.545 | LONG (> 125 days) | 2/3 | 2-4x | 328 | – | –
16 | COCCNCC(O)Cn1c2ccc(Cl)cc2c2cc(Cl)ccc21 (stereo not drawn) [MMV019017] | – | > 1250 | > 2.6 | 1.24 | LONG (> 125 days) | 0/3 | no shift | 929 | – | –
17 | CN(C)CCCN(C)C(=O)C1Cc2cc(-c3ccccc3)ccc2N1S(=O)(=O)c1ccccc1 (stereo not drawn) [MMV028895] | – | – | – | 1.07 | – | – | – | 390 | – | –
18 | COc1ccc2c3c([nH]c2c1)[C@H](CO)N(C(C)=O)CC31CCN(C(=O)Nc2ccccc2F)CC1 [MMV673482] | 182 | – | – | 0.027 | SHORT (0-50 days) | 2/3 | 7-18x | – | – | –
